From PubChem BioAssay AID1745844 (Carcinogenic Potency Database (CPDB), 2022)
Calls of active or inactive are those of the source. How the calls were made is not given here.

Test system: rodent lifetime carcinogenesis bioassay, tumor incidence TD50
Assay: carcinogenic potency in animals, long-term in vivo studies, CPDB compilation (AID 1745844)

NNC=O gave a TD50 (mouse, strain Swiss albino, females, in drinking water, site: liver, lesion: several types, types named in the paper, dosed 83 weeks, study length 83 weeks) of 6860 mg/kg/day, a TD50 (mouse, strain Swiss albino, females, in drinking water, site: lung, lesion: several types, types named in the paper, dosed 83 weeks, study length 83 weeks) of 36 mg/kg/day and a TD50 (mouse, strain Swiss albino, males, in drinking water, site: liver, lesion: several types, types named in the paper, dosed 83 weeks, study length 83 weeks) of 1150 mg/kg/day. For the same compound, the carcinogen call (mouse, strain Swiss albino, males, in drinking water, site: lung, lesion: several types, types named in the paper, dosed 83 weeks, study length 83 weeks) was “positive”.

C#C[C@]1(OC(C)=O)CC[C@H]2[C@@H]3CCC4=C[C@@H](OC(C)=O)CC[C@@H]4[C@H]3CC[C@@]21C was tested, and the carcinogen call (rat, strain Wistary/NIN, females, by gavage, site: liver, lesion: one or several types, types not named, dosed 60 weeks, study length 60 weeks) was “negative (inactive)”.

CCCC1O[C@@H]2C[C@H]3[C@@H]4CCC5=CC(=O)C=C[C@]5(C)[C@H]4[C@@H](O)C[C@]3(C)[C@]2(C(=O)CO)O1 (stereo partly specified) gave a TD50 (rat, strain Charles River CD (Sprague-Dawley), males, in drinking water, site: liver, lesion: hepatocellular adenoma, dosed 104 weeks, study length 104 weeks) of 0.491 mg/kg/day, a TD50 (rat, strain Charles River CD (Sprague-Dawley), males, in drinking water, site: liver, lesion: hepatocellular carcinoma, dosed 104 weeks, study length 104 weeks) of 0.822 mg/kg/day and a TD50 (rat, strain Charles River CD (Sprague-Dawley), males, in drinking water, site: liver, lesion: several types, types named in the paper, dosed 104 weeks, study length 104 weeks) of 0.291 mg/kg/day.

For Cc1ccc2c(c1N)C(=O)c1ccccc1C2=O, the TD50 (mouse, strain B6C3F1, females, in feed, site: liver, lesion: hepatocellular adenoma + hepatocellular carcinoma + neoplastic nodule, dosed 70 weeks, study length 97 weeks) was 174 mg/kg/day, the TD50 (mouse, strain B6C3F1, females, in feed, site: liver, lesion: hepatocellular carcinoma + neoplastic nodule, dosed 70 weeks, study length 97 weeks) was 174 mg/kg/day and the carcinogen call (mouse, strain B6C3F1, males, in feed, site: any site (literature study), lesion: several types, types named in the paper, dosed 70 weeks, study length 97 weeks) was “negative (inactive)”. It also gave a TD50 (rat, strain Fischer 344, females, in feed, site: liver, lesion: hepatocellular adenoma + hepatocellular carcinoma + neoplastic nodule, dosed 78 weeks, study length 104 weeks) of 115 mg/kg/day, a TD50 (rat, strain Fischer 344, females, in feed, site: liver, lesion: hepatocellular carcinoma + neoplastic nodule, dosed 78 weeks, study length 104 weeks) of 115 mg/kg/day and a TD50 (rat, strain Fischer 344, females, in feed, site: liver, lesion: hepatocellular carcinoma, dosed 78 weeks, study length 104 weeks) of 182 mg/kg/day. It also gave a TD50 (rat, strain Fischer 344, males, in feed, site: any site (literature study), lesion: several types, types named in the paper, dosed 78 weeks, study length 104 weeks) of 64.4 mg/kg/day, a TD50 (rat, strain Fischer 344, males, in feed, site: kidney + liver, lesion: adenocarcinoma, NOS + tubular-cell adenoma + tubular-cell adenocarcinoma + hepatocellular carcinoma + neoplastic nodule, dosed 78 weeks, study length 104 weeks) of 34.1 mg/kg/day and a TD50 (rat, strain Fischer 344, males, in feed, site: kidney, lesion: adenocarcinoma, NOS + tubular-cell adenocarcinoma, dosed 78 weeks, study length 104 weeks) of 441 mg/kg/day. For the same compound, the TD50 (rat, strain Fischer 344, males, in feed, site: kidney, lesion: adenocarcinoma, NOS + tubular-cell adenoma + tubular-cell adenocarcinoma, dosed 78 weeks, study length 104 weeks) was 131 mg/kg/day, the TD50 (rat, strain Fischer 344, males, in feed, site: kidney, lesion: tubular-cell adenoma, dosed 78 weeks, study length 104 weeks) was 196 mg/kg/day and the TD50 (rat, strain Fischer 344, males, in feed, site: liver, lesion: hepatocellular adenoma + hepatocellular carcinoma + neoplastic nodule, dosed 78 weeks, study length 104 weeks) was 39.9 mg/kg/day. The TD50 (rat, strain Fischer 344, males, in feed, site: liver, lesion: hepatocellular carcinoma + neoplastic nodule, dosed 78 weeks, study length 104 weeks) was 39.9 mg/kg/day, the TD50 (rat, strain Fischer 344, males, in feed, site: liver, lesion: hepatocellular carcinoma, dosed 78 weeks, study length 104 weeks) was 150 mg/kg/day and the TD50 (rat, strain Fischer 344, males, in feed, site: pituitary gland, lesion: adenoma, NOS + chromophobe adenoma, dosed 78 weeks, study length 104 weeks) was 136 mg/kg/day. It also gave a TD50 (rat, strain Fischer 344, males, in feed, site: thyroid gland, lesion: c-cell adenoma + c-cell carcinoma, dosed 78 weeks, study length 104 weeks) of 283 mg/kg/day.

In the case of CC1CN(N=O)C(=O)NC1=O (stereo unspecified), the carcinogen call (rat, strain MRC-Wistar, females, in drinking water, site: any site (literature study), lesion: several types, types named in the paper, dosed 52 weeks, study length 127 weeks) was “negative (inactive)”, the TD50 (rat, strain MRC-Wistar, females, in drinking water, site: liver, lesion: several types, types named in the paper, dosed 52 weeks, study length 127 weeks) was 31.2 mg/kg/day and the carcinogen call (rat, strain MRC-Wistar, males, in drinking water, site: any site (literature study), lesion: several types, types named in the paper, dosed 52 weeks, study length 127 weeks) was “negative (inactive)”. The carcinogen call (rat, strain MRC-Wistar, males, in drinking water, site: liver, lesion: one or several types, types not named, dosed 52 weeks, study length 127 weeks) was “negative (inactive)”.

Work on O=[N+]([O-])c1ccc(-c2cscn2)o1 yielded a TD50 (rat, strain Sprague-Dawley albino, females, in feed, site: any site (literature study), lesion: several types, types named in the paper, dosed 46 weeks, study length 68 weeks) of 7.68 mg/kg/day, a TD50 (rat, strain Sprague-Dawley albino, females, in feed, site: forestomach, lesion: squamous-cell carcinoma, dosed 46 weeks, study length 68 weeks) of 19.5 mg/kg/day and a TD50 (rat, strain Sprague-Dawley albino, females, in feed, site: mammary gland, lesion: fibroadenoma, dosed 46 weeks, study length 68 weeks) of 15.6 mg/kg/day.
